Measurements as given in US9951046B2, “TRPA1 modulators” (Algomedix, Inc., priority 2014, dated 2018).
Like-named read-outs stand apart in the source and are kept apart here.

Target: T1, human TRPA1 (Homo sapiens, UniProt O75762)
T1 construct: expressed in transfected cells
Assay: Cell-based functional intracellular calcium ([Ca2+]i) assay, Fluo-4/Fluo-8, FlexStation, challenge with reference TRPA1 agonist (FFA, AITC or 4-HNE)
Experimental: A stable HEK293 cell line that expresses human TRPA1 in an inducible manner was employed in this assay. […] The expression of TRPA1 was induced by including 1 μg/ml doxycycline in the culture medium. For the induced cells, ruthenium red (5 μM) was also added to minimize the constitutive TRPA1 channel activity and cells were used 14-18 hrs after induction. To measure [Ca^2+]i changes, cells were seeded in wells of 96-well plates at ˜100,000 cells/well and grown for 14-18 hrs to reach confluency. To prevent cell loss from subsequent washing, the wells were treated with 20 μg/ml polyornithine (MW>30,000, Sigma, St Louis, Mo.) for >15 min and rinsed once with Hank's balanced salt solution without Mg^2+ and Ca^2+. […] In some experiments, Fluo-8-AM was used instead of Fluo-4-AM as the calcium-sensitive fluorescent probe. Probenecid (2 mM) was included in all solutions to prevent the leakage of Fluo-4 or Fluo-8 from the cells. At the end of the incubation, cells were washed three times with ECS and placed in 80 μL of the same solution. Fluorescence changes were measured using a fluid handling integrated fluorescence plate reader, FlexStation (Molecular Devices, Sunnyvale, Calif.). Stock solutions of test compounds were initially solubilized in 100% DMSO and then serially diluted to achieve the desired final concentration. […] Drugs were diluted into ECS at 2× or 3× the desired final concentrations and delivered to the sample plate by an integrated robotic 8-channel pipettor at preprogrammed time points. […] Experiments were performed at 20-25° C. For certain experiments, 0.1% BSA was included with the cells and test compounds.
The kinetic data obtained at each test concentration of drug represents a series of fluorescent intensities as a function of time.
Using a sequential addition protocol, test compounds were initially applied to the cells loaded with Fluo-4 or Fluo-8 and fluorescence changes in each well monitored for 2.5 min. The plate was read again in a kinetic mode after a 15-30 min incubation with the test compounds after obtaining baseline values (about 30 s) and subsequent addition of challenge with a reference TRPA1 agonist. Reference TRPA1 agonists in testing each compound included at least one of flufenamic acid (FFA), allyl isothiocyanate (AITC) and 4-hydroxynonenal (4-HNE).
Antagonist activity can be expressed in terms of IC50 with respect to TRPA1 and agonist activity can be expressed in terms of EC50 with respect to TRPA1.

[1] = HEK293 cells expressing human TRPA1, IC50 class after addition of reference TRPA1 agonist (FFA, AITC or 4-HNE), read-out: human TRPA1-HEK Activity

T1 sequence (O75762 whole entry): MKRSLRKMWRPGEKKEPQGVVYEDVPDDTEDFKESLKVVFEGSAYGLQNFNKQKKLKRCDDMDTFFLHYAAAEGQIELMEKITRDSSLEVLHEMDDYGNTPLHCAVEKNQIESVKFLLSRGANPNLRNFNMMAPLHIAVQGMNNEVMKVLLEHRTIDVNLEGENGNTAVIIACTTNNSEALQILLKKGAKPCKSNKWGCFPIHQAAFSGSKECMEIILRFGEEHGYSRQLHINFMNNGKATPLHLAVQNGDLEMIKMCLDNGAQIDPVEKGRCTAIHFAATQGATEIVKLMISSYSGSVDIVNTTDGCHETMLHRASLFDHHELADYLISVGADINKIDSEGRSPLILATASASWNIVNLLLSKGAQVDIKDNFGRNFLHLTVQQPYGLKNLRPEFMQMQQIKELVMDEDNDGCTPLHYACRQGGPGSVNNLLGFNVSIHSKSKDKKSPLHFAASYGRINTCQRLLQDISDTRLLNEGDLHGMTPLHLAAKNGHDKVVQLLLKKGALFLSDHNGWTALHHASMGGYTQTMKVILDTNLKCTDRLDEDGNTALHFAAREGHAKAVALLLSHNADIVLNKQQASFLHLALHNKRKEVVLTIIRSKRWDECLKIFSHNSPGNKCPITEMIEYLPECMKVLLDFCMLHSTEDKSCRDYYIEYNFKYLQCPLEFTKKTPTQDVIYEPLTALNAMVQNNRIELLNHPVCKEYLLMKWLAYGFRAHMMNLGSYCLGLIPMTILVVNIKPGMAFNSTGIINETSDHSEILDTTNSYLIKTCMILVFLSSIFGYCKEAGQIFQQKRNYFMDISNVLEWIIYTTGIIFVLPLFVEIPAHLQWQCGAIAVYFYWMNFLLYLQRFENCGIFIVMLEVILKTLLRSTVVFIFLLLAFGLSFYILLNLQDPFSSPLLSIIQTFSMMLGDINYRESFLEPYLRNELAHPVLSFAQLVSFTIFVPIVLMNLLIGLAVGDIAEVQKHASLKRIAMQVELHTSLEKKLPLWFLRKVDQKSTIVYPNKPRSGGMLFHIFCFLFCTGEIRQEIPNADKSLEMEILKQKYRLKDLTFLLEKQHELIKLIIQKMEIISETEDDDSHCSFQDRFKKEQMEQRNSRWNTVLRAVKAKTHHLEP

## N#Cc1c(F)ccc2[nH]c(=O)n(C3CCN(C(=O)c4cc(-c5cccnc5)n(-c5ccc(C(F)(F)F)c(F)c5)n4)CC3)c12 [Compound 244]
[1]
  IC50: 5 to 25 µM

## CCCC1COC2(CCN(C(=O)c3cc(-c4ccncc4)n(-c4ccc(F)c(F)c4)n3)CC2)O1 (centres unmarked) [Compound 96]
  IC50: > 25 µM

## O=C(Nc1nc(-c2ccc(F)c(C(F)(F)F)c2)cs1)c1cc(-c2ccncc2)n(-c2ccccc2)n1 [Compound 37]
[1]
  IC50: > 25 µM

## O=C1Nc2ccc(Cl)cc2C2(CCN(C(=O)c3cc(-c4cccnc4)n(-c4ccc(F)c(C(F)(F)F)c4)n3)CC2)O1 [Compound 280]
[1]
  IC50: 0.001 to 5 µM

## O=C(c1cc(-c2cccnc2)n(-c2ccc(F)c(C(F)(F)F)c2)n1)N1CCC(n2c(=S)[nH]c3cc(F)c(F)c(F)c32)CC1 [Compound 298]
[1]
  IC50: 0.001 to 5 µM

## Cc1ccc(-c2cc(C(=O)N3CCC4(CC3)C(=O)NCN4c3ccc(F)cc3)nn2-c2ccc(C(F)(F)F)c(F)c2)cn1 [Compound 262]
[1]
  IC50: 5 to 25 µM

## CC1COC2(CCN(C(=O)c3cc(-c4ccncc4)n(-c4cnccn4)n3)CC2)O1 (centres unmarked) [Compound 135]
  IC50: > 25 µM

## O=C(c1nn(-c2cc(F)c(F)c(F)c2)c(-c2cccnc2)c1Br)N1CCC(n2c(=O)[nH]c3ccc(F)c(F)c32)CC1 [Compound 211]
[1]
  IC50: 0.001 to 5 µM

## CC1CC(n2c(=S)[nH]c3ccc(F)c(F)c32)CCN1C(=O)c1cc(-c2cccnc2)n(-c2ccc(F)c(C(F)(F)F)c2)n1 (centres unmarked) [Compound 294]
[1]
  IC50: 0.001 to 5 µM

## O=C(c1cc(-c2ccncc2)n(-c2ccccc2)n1)N1CCC(n2c(=O)[nH]c3ccccc32)CC1 [Compound 25]
[1]
  IC50: > 25 µM

## N#Cc1c(F)ccc2[nH]c(=O)n(C3CCN(C(=O)c4cc(-c5cccnc5)n(-c5cc(F)c(F)c(F)c5)n4)CC3)c12 [Compound 233]
[1]
  IC50: 0.001 to 5 µM

## O=C(c1cc(-c2ccncc2)n(-c2ccc(C(F)(F)F)cc2)n1)N1CC(=O)N2CCc3ccccc3C2C1 (centres unmarked) [Compound 60]
[1]
  IC50: 5 to 25 µM

## O=C(c1cc(-c2ccncc2)n(-c2ccc(C(F)(F)F)c(F)c2)n1)N1CCC(n2c(=O)[nH]c3ccccc32)CC1 [Compound 162]
[1]
  IC50: 5 to 25 µM

## O=C(c1cc(-c2cccnc2)n(-c2ccc(OC(F)(F)F)c(F)c2)n1)N1CCC2(CC1)C(=O)NCN2c1ccc(F)c(F)c1 [Compound 214]
[1]
  IC50: 0.001 to 5 µM

## O=C(c1cc(-c2ccncc2)n(-c2cccc(C(F)(F)F)c2)n1)N1CCC2(CC1)OCCO2 [Compound 148]
  IC50: > 25 µM

## O=C(Nc1ccc2c(c1)COC2=O)c1cc(-c2ccncc2)n(-c2ccc(C(F)(F)F)cc2)n1 [Compound 70]
[1]
  IC50: 5 to 25 µM

## CN1C(=O)COc2cc(NC(=O)c3cc(-c4ccncc4)n(-c4ccc(F)c(F)c4)n3)ccc21 [Compound 89]
[1]
  IC50: > 25 µM

## O=C(Nc1ccc2c(c1)OC(F)(F)O2)c1cc(-c2ccncc2)n(-c2cnccn2)n1 [Compound 130]
[1]
  IC50: 5 to 25 µM

## O=C(c1cc(-c2cccnc2)n(-c2ccc(OC(F)(F)F)c(F)c2)n1)N1CCC(n2c(=O)[nH]c3ccc(F)c(F)c32)CC1 [Compound 215]
[1]
  IC50: 0.001 to 5 µM

## O=C(c1cc(-c2ccncc2)n(-c2ccc(C(F)(F)F)c(F)c2)n1)N1CCC2(CC1)C(=O)NCN2c1ccc(F)cc1 [Compound 99]
[1]
  IC50: 0.001 to 5 µM

## O=C(c1cc(-c2ccccn2)n(-c2cc(F)c(F)c(F)c2)n1)N1CCC(n2c(=O)[nH]c3ccc(F)c(F)c32)CC1 [Compound 252]
[1]
  IC50: 5 to 25 µM

## O=C(c1cc(-c2ccncc2)n(-c2ccc(F)cc2F)n1)N1CCC2(CC1)C(=O)NCN2c1ccccc1 [Compound 152]
[1]
  IC50: > 25 µM

## O=C(c1cc(-c2cccnc2)n(-c2ccc(C(F)(F)F)c(F)c2)n1)N1CCC2(CC1)C(=O)Nc1ccccc12 [Compound 259]
[1]
  IC50: 5 to 25 µM

## O=C(c1cc(-c2ccncc2)n(-c2ccc(C(F)(F)F)c(F)c2)n1)N1CCC2(CC1)SCCS2 [Compound 107]
[1]
  IC50: > 25 µM

## CCCC1COC2(CCN(C(=O)c3cc(-c4ccncc4)n(-c4cnccn4)n3)CC2)O1 (centres unmarked) [Compound 138]
  IC50: > 25 µM

## O=C(c1cc(-c2ccncc2)n(-c2cc(F)c(F)c(F)c2)n1)N1CCC(n2c(=O)[nH]c3ccccc32)CC1 [Compound 141]
[1]
  IC50: 5 to 25 µM

## O=C(Nc1ccc2c(c1)OC(F)(F)O2)c1cc(-c2ccncc2)n(-c2ccc(C(F)(F)F)cc2)n1 [Compound 66]
[1]
  IC50: > 25 µM

## O=C(c1cc(-c2ccncc2)n(-c2ccc(C(F)(F)F)nc2)n1)N1CCC2(CC1)OCc1ccccc12 [Compound 122]
[1]
  IC50: > 25 µM

## O=C(c1cc(-c2ccncc2)n(-c2ccc(F)c(F)c2)n1)N1CCC(N2C(=O)Cc3ccccc32)CC1 [Compound 76]
  IC50: > 25 µM

## Cc1nc(C(F)(F)F)ccc1-c1cc(C(=O)N2CCC3(CC2)C(=O)NCN3c2ccc(F)cc2)nn1-c1ccc(C(F)(F)F)c(F)c1 [Compound 263]
[1]
  IC50: > 25 µM

## O=C(c1cc(-c2ccncc2)n(-c2ccccc2)n1)N1CCC2(CC1)C(=O)NCN2c1ccccc1 [Compound 8]
[1]
  IC50: 5 to 25 µM

## O=C(c1cc(-c2ccncc2)n(-c2ccc(C(F)(F)F)nc2)n1)N1CCC2(CC1)C(=O)NCN2c1ccc(Cl)cc1 [Compound 121]
[1]
  IC50: > 25 µM

## O=C(c1cc(-c2ccncc2)n(-c2ccccc2)n1)N1CCC2(CCCO2)CC1 [Compound 12]
[1]
  IC50: > 25 µM

## O=C(c1cc(-c2cccnc2)n(-c2ccc(C(F)(F)F)c(F)c2)n1)N1CCN2C(=O)OC[C@@H]2C1 [Compound 191]
[1]
  IC50: 0.001 to 5 µM

## CN1C(=O)COc2cc(NC(=O)c3cc(-c4ccncc4)n(-c4ccc(C(F)(F)F)cc4)n3)ccc21 [Compound 67]
[1]
  IC50: > 25 µM

## O=C(c1cc(-c2ccncc2)n(-c2ccc(F)c(F)c2)n1)N1CCC2(CC1)C(=O)NCN2c1ccc(Cl)cc1 [Compound 78]
[1]
  IC50: > 25 µM

## O=C(c1cc(-c2ccncc2)n(-c2ccc(C(F)(F)F)nc2)n1)N1CCC2(CC1)SCCS2 [Compound 128]
[1]
  IC50: > 25 µM

## O=C(c1cc(-c2ccncc2)n(-c2ccc(C(F)(F)F)cc2)n1)N1CCC2(CC1)C(=O)NCN2c1ccccc1 [Compound 143]
[1]
  IC50: 5 to 25 µM

## O=C(c1cc(-c2ccncc2)n(-c2ccc(C(F)(F)F)cc2)n1)N1CCC(n2c(=O)[nH]c3cc(C(F)(F)F)ccc32)CC1 [Compound 178]
[1]
  IC50: 5 to 25 µM

## O=C(c1cc(-c2ccncc2)n(-c2ccc(C(F)(F)F)cc2)n1)N1CCC(c2nc3ccccc3o2)CC1 [Compound 65]
[1]
  IC50: > 25 µM

## O=C(c1cc(-c2ccncc2)n(-c2cnccn2)n1)N1CCC2(CC1)OCCO2 [Compound 169]
  IC50: > 25 µM

## O=C(c1cc(-c2ccncc2)n(-c2ccc(C(F)(F)F)c(F)c2)n1)N1CCC2(CC1)C(=O)NCN2c1ccc(OC(F)(F)F)cc1 [Compound 179]
[1]
  IC50: > 25 µM

## Cn1c(=O)n(C2CCN(C(=O)c3cc(-c4ccncc4)n(-c4ccccc4)n3)CC2)c2ccccc21 [Compound 172]
[1]
  IC50: > 25 µM

## Cc1c(C(=O)N2CCC3(CC2)C(=O)NCN3c2ccc(F)cc2)nn(-c2cc(F)c(F)c(F)c2)c1-c1cccnc1 [Compound 266]
[1]
  IC50: 0.001 to 5 µM

## CC1CC(n2c(=O)[nH]c3ccc(F)c(F)c32)CC(C)N1C(=O)c1cc(-c2cccnc2)n(-c2ccc(C(F)(F)F)c(F)c2)n1 (centres unmarked) [Compound 194]
[1]
  IC50: 5 to 25 µM

## Cc1cc(N2CNC(=O)C23CCN(C(=O)c2cc(-c4cccnc4)n(-c4ccc(C#N)c(F)c4)n2)CC3)cc(C)c1F [Compound 329]
[1]
  IC50: 0.001 to 5 µM

## O=C(c1cc(-c2cccnc2)n(-c2cc(F)c(F)c(F)c2)n1)N1CCC2(CC1)C(=O)NCN2c1ccc(F)c(F)c1 [Compound 254]
[1]
  IC50: 0.001 to 5 µM

## O=C(Nc1ccc2[nH]c(=O)oc(=O)c2c1)c1cc(-c2ccncc2)n(-c2ccccc2)n1 [Compound 38]
[1]
  IC50: 5 to 25 µM

## O=C(c1cc(-c2ccncc2)n(-c2ccc(C(F)(F)F)c(F)c2)n1)N1CCC2(CC1)OCCO2 [Compound 163]
  IC50: 5 to 25 µM

## Cn1c(=O)c(=O)n(C)c2cc(NC(=O)c3cc(-c4ccncc4)n(-c4ccc(F)c(F)c4)n3)ccc21 [Compound 91]
[1]
  IC50: > 25 µM

## Cc1cnc(-c2cc(C(=O)N3CCC4(CC3)C(=O)NCN4c3ccc(F)cc3)nn2-c2ccc(C(F)(F)F)cc2)c(C)n1 [Compound 52]
[1]
  IC50: > 25 µM

## O=C(c1nn(-c2cc(F)c(F)c(F)c2)c(-c2cccnc2)c1Br)N1CCC2(CC1)C(=O)NCN2c1ccc(F)cc1 [Compound 210]
[1]
  IC50: 0.001 to 5 µM

## N#Cc1ccc(-n2nc(C(=O)N3CCC4(CC3)C(=O)NCN4c3ccc(F)cc3)cc2-c2cccnc2)c(C(F)(F)F)c1 [Compound 324]
[1]
  IC50: 0.001 to 5 µM

## Cn1c(=O)n(C2CCN(C(=O)c3cc(-c4ccncc4)n(-c4ccc(F)c(F)c4)n3)CC2)c2ccccc21 [Compound 83]
[1]
  IC50: > 25 µM

## O=C(c1cc(-c2cccnc2)n(-c2ccc(Cl)c(C(F)(F)F)c2)n1)N1CCC(n2c(=O)[nH]c3ccc(F)c(F)c32)CC1 [Compound 295]
[1]
  IC50: 0.001 to 5 µM

## O=C1Nc2ncccc2C2(CCN(C(=O)c3cc(-c4cccnc4)n(-c4ccc(F)c(C(F)(F)F)c4)n3)CC2)O1 [Compound 281]
[1]
  IC50: 0.001 to 5 µM
